Measurements from US8178709B2, “Iron preparation suitable for pharmaceutical formulation and process for the preparation thereof” (BioLink Life Sciences, Inc., priority 2009, dated 2012).

What was measured:
human apotransferrin = human apotransferrin (Homo sapiens, UniProt P02787); experiment: Iron binding to human apotransferrin (method of Bates, absorbance at 470 nm); conditions: Tris buffer with bicarbonate, pH 7.5, 25.0° C., FIG. 1
Excerpt: The major iron transport pool in human serum is iron bound to apotransferrin, an 80 kDa bilobal protein with two iron binding sites. The function of apotransferrin is: i) to bind iron and as transferrin (iron-laden apotransferrin) move iron from storage depots (ferritin) to various cell receptors; ii) to prevent iron from engaging in redox reactions which produce toxic free radicals; and iii) to prevent bacterial acquisition of this essential nutrient. Consequently, the best way to introduce iron into the normal metabolic pool is to deliver it to apotransferrin. […] Therefore, we measured the kinetics of Fe-transferrin formation from iron preparations of the invention and compared the kinetics to the kinetics of Fe-transferrin formation from commercial soluble ferric pyrophosphate and ferric sulfate-NTA complex at identical conditions according to the method of Bates, et al. [Bates, G. W., Billups, C. […]
The following test articles were evaluated in this study: Products 2-1 through 2-4 (described in Example 2); soluble ferric pyrophosphate (SFP), lot 112362 manufactured by The Dr. Paul Lohmann Chemical Company, Emmerthal, Germany (“Lohmann”); and ferric sulfate:NTA chelate.
Experimental Details. […] The binding of iron to apotransferrin was monitored at 470 nm, the absorption maximum for ferric transferrin. […]

macrophages = conditions: ferric citrate-treated macrophages; cited from earlier work

Chain of human apotransferrin (P02787 20-698): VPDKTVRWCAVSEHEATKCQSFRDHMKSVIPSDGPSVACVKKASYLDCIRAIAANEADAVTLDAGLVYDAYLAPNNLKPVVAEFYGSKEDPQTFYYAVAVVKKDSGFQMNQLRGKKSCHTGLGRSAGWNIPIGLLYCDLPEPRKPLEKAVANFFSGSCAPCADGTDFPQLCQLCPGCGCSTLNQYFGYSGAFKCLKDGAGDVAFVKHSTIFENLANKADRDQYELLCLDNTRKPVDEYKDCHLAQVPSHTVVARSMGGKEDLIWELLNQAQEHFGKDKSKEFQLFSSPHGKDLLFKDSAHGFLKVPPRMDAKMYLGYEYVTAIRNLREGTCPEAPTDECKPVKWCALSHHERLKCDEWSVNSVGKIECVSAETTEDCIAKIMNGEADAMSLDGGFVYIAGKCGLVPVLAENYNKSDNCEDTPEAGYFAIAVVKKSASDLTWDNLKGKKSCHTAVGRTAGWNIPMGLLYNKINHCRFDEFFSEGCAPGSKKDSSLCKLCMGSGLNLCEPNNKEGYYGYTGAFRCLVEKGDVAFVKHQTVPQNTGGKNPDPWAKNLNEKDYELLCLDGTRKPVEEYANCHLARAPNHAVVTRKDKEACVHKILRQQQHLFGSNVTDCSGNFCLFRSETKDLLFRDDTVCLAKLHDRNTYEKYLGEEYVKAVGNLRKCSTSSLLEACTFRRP

Row | Extent (efficiency) of iron uptake by human apotransferrin (human apotransferrin) | Substance | Level of lipid peroxidation (macrophages) | Phagocytic capacity (macrophages)
1 | near quantitative efficiency | ferric sulfate:NTA chelate [ferric sulfate-NTA chelate] |  | 
2 |  | ferric citrate | significantly elevated | inhibited in a dose-related manner
3 | near quantitative efficiency | soluble ferric pyrophosphate |  | 
